Patent publication US11472791B2 (Incyte Corporation, priority 2019, dated 2022)

Columns and labels:
Assay type in all cases: biochemical
Conditions in all cases: 1 mM ATP
[1] = target: human JAK1 (Homo sapiens, UniProt P23458); assay: JAK inhibitory activity assay (JAK1)
Procedure: (§1) Compounds herein were tested for inhibitory activity of JAK targets according to the following in vitro assay described in Park et al., Analytical Biochemistry 1999, 269, 94-104. The catalytic domains of human JAK1 (a.a. 837-1142), Jak2 (a.a. 828-1132) and Jak3 (a.a. 781-1124) with an N-terminal His tag were expressed using baculovirus in insect cells and purified. The catalytic activity of JAK1 and JAK2 was assayed by measuring the phosphorylation of a biotinylated peptide. The phosphorylated peptide was detected by homogenous time resolved fluorescence (HTRF). Each enzyme reaction was carried out with or without test compound (11-point dilution), JAK enzyme, 500 nM peptide, adenosine triphosphate (ATP; 1 mM), and 2.0% dimethyl sulfoxide (DMSO) in assay buffer (50 mM Tris (pH 7.8) buffer, 100 mM NaCl, 5 mM DTT, and 0.1 mg/mL (0.01%) BSA). The peptide substrate (Biotin-[…]) was custom synthesized by Biosource International. Reactions were carried out at room temperature for 1 hour and then stopped with 10 μL 45 mM EDTA, 200 nM SA-APC, 4 nM Eu-Py20 in assay buffer (Perkin Elmer, Boston, Mass.). After incubation for 30 minutes at room temperature, the HTRF signal was measured on a PheraStar plate reader.

[2] = target: JAK2 (Homo sapiens (Human), UniProt O60674); assay: JAK inhibitory activity assay (JAK2)
Procedure: as §1

[3] = target: CDK2/Cyclin E1 (Homo sapiens (Human), UniProt P24941); assay: CDK2/Cyclin E1 HTRF enzyme activity assay
Procedure: Assays are conducted in white 384-well polystyrene plates in a final reaction volume of 8 μL. […] HTRF signals are read after 1 hour at room temperature on a PHERAstar FS plate reader (BMG Labtech). Data is analyzed with IDBS XLFit and GraphPad Prism 5.0 software using a three or four parameter dose response curve to determine IC50 for each compound.

JAK2, sequence (O60674 828-1132): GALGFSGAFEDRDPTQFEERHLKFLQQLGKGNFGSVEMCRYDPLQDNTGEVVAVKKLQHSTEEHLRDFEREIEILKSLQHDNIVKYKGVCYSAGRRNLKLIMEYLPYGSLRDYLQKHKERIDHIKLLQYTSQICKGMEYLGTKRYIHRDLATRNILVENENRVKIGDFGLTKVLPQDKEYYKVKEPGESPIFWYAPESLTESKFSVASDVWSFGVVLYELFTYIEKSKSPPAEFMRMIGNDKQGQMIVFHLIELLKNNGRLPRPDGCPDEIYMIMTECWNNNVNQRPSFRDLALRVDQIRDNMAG

Row | SMILES | IC50 [1] [µM] | IC50 [2] [µM] | IC50 [3] [nM]
1 | CO[C@H]1CC[C@H](n2cc(-c3nc(NC4CCN(S(=O)(=O)c5cn(C)cn5)CC4)ncc3C(F)(F)F)cn2)CC1 [Example 42, 4-(1-((1r,4r)-4-Methoxycyclohexyl)-1H-pyrazol-4-yl)-N-(1-((1-methyl-1H-imidazol-4-yl)sulfonyl)piperidin-4-yl)-5-(trifluoromethyl)pyrimidin-2-amine] | ≥ 5 | ≥ 5 | < 50
2 | CC(C)(C(N)=O)n1cc(-c2nc(NC3CCN(S(=O)(=O)c4ccccn4)CC3)ncc2C(F)(F)F)cn1 [Example 96, 2-Methyl-2-(4-(2-((1-(pyridin-2-ylsulfonyl)piperidin-4-yl)amino)-5-(trifluoromethyl)pyrimidin-4-yl)-1H-pyrazol-1-yl)propanamide] | ≥ 10 | ≥ 10 | < 50
3 | Cn1cc(S(=O)(=O)N2CCC(Nc3ncc(C(F)(F)F)c(-c4cnn(CC(F)(F)F)c4)n3)CC2)cn1 [Example 1, N-(1-((1-Methyl-1H-pyrazol-4-yl)sulfonyl)piperidin-4-yl)-4-(1-(2,2,2-trifluoroethyl)-1H-pyrazol-4-yl)-5-(trifluoromethyl)pyrimidin-2-amine] | ≥ 10 | ≥ 10 | < 50
4 | CS(=O)(=O)N1CCC(Nc2ncc(C(F)(F)F)c(-c3cnn(CC(F)(F)F)c3)n2)CC1 [Example 10, N-(1-(Methylsulfonyl)piperidin-4-yl)-4-(1-(2,2,2-trifluoroethyl)-1H-pyrazol-4-yl)-5-(trifluoromethyl)pyrimidin-2-amine] | ≥ 10 | ≥ 10 | < 50
5 | CN1CCC(n2cc(-c3nc(NC4CCN(S(C)(=O)=O)CC4)ncc3C(F)(F)F)cn2)CC1 [Example 11, 4-(1-(1-Methylpiperidin-4-yl)-1H-pyrazol-4-yl)-N-(1-(methylsulfonyl)piperidin-4-yl)-5-(trifluoromethyl)pyrimidin-2-amine] | ≥ 10 | ≥ 10 | < 50
6 | CNCc1ccc(-n2cc(-c3nc(NC4CCN(S(C)(=O)=O)CC4)ncc3C(F)(F)F)cn2)c(C)c1 [Example 41, 4-(1-(2-Methyl-4-((methylamino)methyl)phenyl)-1H-pyrazol-4-yl)-N-(1-(methylsulfonyl)piperidin-4-yl)-5-(trifluoromethyl)pyrimidin-2-amine] | ≥ 10 | ≥ 10 | < 50
7 | CN1CCN(Cc2ccc(-n3cc(-c4nc(NC5CCN(S(C)(=O)=O)CC5)ncc4C#N)cn3)c(Cl)c2)CC1 [Example 99, 4-(1-(2-Chloro-4-((4-methylpiperazin-1-yl)methyl)phenyl)-1H-pyrazol-4-yl)-2-((1-(methylsulfonyl)piperidin-4-yl)amino)pyrimidine-5-carbonitrile] | ≥ 10 | ≥ 10 | < 50
8 | CC(C)(O)Cn1cc(-c2nc(NC3CCN(S(=O)(=O)C4CC4)CC3)ncc2C#N)cn1 [Example 54, 2-((1-(Cyclopropylsulfonyl)piperidin-4-yl)amino)-4-(1-(2-hydroxy-2-methylpropyl)-1H-pyrazol-4-yl)pyrimidine-5-carbonitrile] | ≥ 10 | ≥ 10 | < 50
9 | C[C@@H]1COCCN1CCCS(=O)(=O)N1CCC(Nc2ncc(C(F)(F)F)c(-c3cnn(CC(C)(C)O)c3)n2)CC1 [Example 72, (R)-2-Methyl-1-(4-(2-((1-((3-(3-methylmorpholino)propyl)sulfonyl)piperidin-4-yl)amino)-5-(trifluoromethyl)pyrimidin-4-yl)-1H-pyrazol-1-yl)propan-2-ol] | – | – | < 50
10 | CS(=O)(=O)N1CCC(Nc2ncc(C(F)(F)F)c(-c3cnn(C4CCCCC4)c3)n2)CC1 [Example 12, 4-(1-Cyclohexyl-1H-pyrazol-4-yl)-N-(1-(methylsulfonyl)piperidin-4-yl)-5-(trifluoromethyl)pyrimidin-2-amine] | – | – | < 50
11 | [2H]C([2H])([2H])NCc1ccc(-n2cc(-c3nc(NC4CCN(S(=O)(=O)c5cnn(C)c5)CC4)ncc3C#N)cn2)c(C)n1 [Example 149, 2-((1-((1-Methyl-1H-pyrazol-4-yl)sulfonyl)piperidin-4-yl)amino)-4-(1-(2-methyl-6-(((methyl-d3)amino)methyl)pyridin-3-yl)-1H-pyrazol-4-yl)pyrimidine-5-carbonitrile] | – | – | < 50
12 | CCNCc1ccc(-n2cc(-c3nc(NC4CCN(S(=O)(=O)CC)CC4)ncc3C#N)cn2)c(C)n1 [Example 125, 4-(1-(6-((Ethylamino)methyl)-2-methylpyridin-3-yl)-1H-pyrazol-4-yl)-2-((1-(ethylsulfonyl)piperidin-4-yl)amino)pyrimidine-5-carbonitrile] | – | – | < 50
13 | CNCc1ccc(-n2cc(-c3nc(N[C@H]4CCN(S(=O)(=O)c5cn(C)cn5)C[C@H]4C)ncc3C(F)(F)F)cn2)c(C)n1 [Example 270, N-((3R,4S)-3-Methyl-1-((1-methyl-1H-imidazol-4-yl)sulfonyl)piperidin-4-yl)-4-(1-(2-methyl-6-((methylamino)methyl)pyridin-3-yl)-1H-pyrazol-4-yl)-5-(trifluoromethyl)pyrimidin-2-amine] | – | – | < 50
14 | CCN1CCN(Cc2ccc(-n3cc(-c4nc(NC5CCN(S(=O)(=O)c6cn(C)cn6)CC5)ncc4C#N)cn3)c(Cl)c2)CC1 [Example 241, 4-(1-(2-Chloro-4-((4-ethylpiperazin-1-yl)methyl)phenyl)-1H-pyrazol-4-yl)-2-((1-((1-methyl-1H-imidazol-4-yl)sulfonyl)piperidin-4-yl)amino)pyrimidine-5-carbonitrile] | – | – | < 50
15 | CCS(=O)(=O)N1CCC(Nc2ncc(C(F)(F)F)c(-c3cnn(CC(C)(C)O)c3)n2)CC1 [Example 53, 1-(4-(2-((1-(Ethylsulfonyl)piperidin-4-yl)amino)-5-(trifluoromethyl)pyrimidin-4-yl)-1H-pyrazol-1-yl)-2-methylpropan-2-ol] | – | – | < 50
16 | COC(=O)N1CCC[C@H](NCc2ccc(-n3cc(-c4nc(NC5CCN(S(C)(=O)=O)CC5)ncc4C#N)cn3)c(Cl)c2)C1 [Example 167, Methyl (S)-3-((3-chloro-4-(4-(5-cyano-2-((1-(methylsulfonyl)piperidin-4-yl)amino)pyrimidin-4-yl)-1H-pyrazol-1-yl)benzyl)amino)piperidine-1-carboxylate] | – | – | < 50
17 | CCS(=O)(=O)N1CCC(Nc2ncc(C(F)(F)F)c(-c3cnn(C(C)(C)C(N)=O)c3)n2)CC1 [Example 97, 2-(4-(2-((1-(Ethylsulfonyl)piperidin-4-yl)amino)-5-(trifluoromethyl)pyrimidin-4-yl)-1H-pyrazol-1-yl)-2-methylpropanamide] | – | – | < 50
18 | CN(C)C1CCC(S(=O)(=O)N2CCC(Nc3ncc(C(F)(F)F)c(-c4cnn(CC(C)(C)O)c4)n3)CC2)CC1 (single isomer, unassigned) [88 (peak 1), 1-(4-(2-((1-((4-(Dimethylamino)cyclohexyl)sulfonyl)piperidin-4-yl)amino)-5-(trifluoromethyl)pyrimidin-4-yl)-1H-pyrazol-1-yl)-2-methylpropan-2-ol] | – | – | < 50
19 | [2H]C([2H])([2H])NCc1ccc(-n2cc(-c3nc(NC4CCN(S(C)(=O)=O)CC4)ncc3Cl)cn2)c(Cl)c1 [Example 134, 5-Chloro-4-(1-(2-chloro-4-(((methyl-d3)amino)methyl)phenyl)-1H-pyrazol-4-yl)-N-(1-(methylsulfonyl)piperidin-4-yl)pyrimidin-2-amine] | – | – | < 50
20 | [2H]C([2H])([2H])NCc1ccc(-n2cc(-c3nc(NC4CCN(S(=O)(=O)CC)CC4)ncc3C(F)(F)F)cn2)c(C)c1 [Example 129, N-(1-(Ethylsulfonyl)piperidin-4-yl)-4-(1-(2-methyl-4-(((methyl-d3)amino)methyl)phenyl)-1H-pyrazol-4-yl)-5-(trifluoromethyl)pyrimidin-2-amine] | – | – | < 50
21 | Cc1cc(CN2CCN(C)CC2)ccc1-n1cc(-c2nc(NC3CCN(S(=O)(=O)c4cn(C)cn4)CC3)ncc2C#N)cn1 [Example 243, 2-((1-((1-Methyl-1H-imidazol-4-yl)sulfonyl)piperidin-4-yl)amino)-4-(1-(2-methyl-4-((4-methylpiperazin-1-yl)methyl)phenyl)-1H-pyrazol-4-yl)pyrimidine-5-carbonitrile] | – | – | < 50
22 | CC(C)(O)Cn1cc(-c2nc(NC3CCN(S(=O)(=O)CCCN4CCCC4)CC3)ncc2C(F)(F)F)cn1 [Example 66, 2-Methyl-1-(4-(2-((1-((3-(pyrrolidin-1-yl)propyl)sulfonyl)piperidin-4-yl)amino)-5-(trifluoromethyl)pyrimidin-4-yl)-1H-pyrazol-1-yl)propan-2-ol] | – | – | < 50
23 | CN(C)C1CCC(S(=O)(=O)N2CCC(Nc3ncc(C(F)(F)F)c(-c4cnn(CC(C)(C)O)c4)n3)CC2)CC1 (single isomer, unassigned) [88 (peak 2), 1-(4-(2-((1-((4-(Dimethylamino)cyclohexyl)sulfonyl)piperidin-4-yl)amino)-5-(trifluoromethyl)pyrimidin-4-yl)-1H-pyrazol-1-yl)-2-methylpropan-2-ol] | – | – | < 50
